# Test system: Escherichia coli reference strain K12-MG1655
# Assay: CombiANT self-interaction experiments (3 reservoirs filled with the same antibiotic)
# Type: cell-based
# Settings: 3 biological replicates; Wilcoxon signed rank test
# From the text: FIG. 17 illustrates self-interaction experiments of the Escherichia coli reference strain K12-MG1655. FICi for all self-interactions for the 8 antibiotics AMP, CIP, CTX, GEN, FOF, NIT, MEC, TMP. Bars indicate average FICi values and standard deviation (SD) of 3 biological replicates.
# First, as controls, we performed self-interaction experiments, where the 3 culture container insert reservoirs were filled with the same antibiotic. […] Next, to verify that the CombiANT™ assay produced valid synergy quantifications, we ran an accuracy and precision study. We tested all pairwise antibiotic interactions in the two Gram-negative reference strains E. coli […] and P. aeruginosa PA14, and the Gram-positive S. aureus reference strain ATCC29213 against a panel of 4 antibiotics. The tested antibiotics, ampicillin (AMP), cefotaxime (CTX), ciprofloxacin (CIP), and gentamicin (GEN), spanned three distinct mechanisms of action and are commonly used in treatments of bacteremia and sepsis caused by these bacterial species. FICi indices were calculated for all 6 pair-wise interactions and all three strains (FIG. 18A).
row,Molecule,nature of self-interaction (FICi)
1,"CC1(C)S[C@@H]2[C@H](NC(=O)[C@H](N)c3ccccc3)C(=O)N2[C@H]1C(=O)O [AMP, ampicillin]",additive
2,"O=C(O)c1cn(C2CC2)c2cc(N3CCNCC3)c(F)cc2c1=O [CIP, ciprofloxacin]",additive
3,"CO/N=C(\C(=O)N[C@@H]1C(=O)N2C(C(=O)O)=C(COC(C)=O)CS[C@H]12)c1csc(N)n1 [CTX, cefotaxime]",additive
4,"C[C@@H]1O[C@@H]1P(=O)(O)O [FOF, fosfomycin]",additive
5,"CC1(C)S[C@@H]2[C@H](/N=C/N3CCCCCC3)C(=O)N2[C@H]1C(=O)O [MEC, mecillinam]",additive
6,"COc1cc(Cc2cnc(N)nc2N)cc(OC)c1OC [TMP, trimethoprim]",additive
7,gentamicin,additive

# From US12729393B2, “Agent interaction effects determination” (priority 2020, dated 2026)
